Some test systems named below: NCI-H226; SF-539; KM-20L2; NCI-H23; HOP-62; SK-MEL-28; M14; LXFL 529; SNB-19; A498; NCI-H460; HT-29; OVCAR-8; OVCAR-3; HCT-116; HCT-15.
What all share (assay): NCI-60 cell line screen, 48 h

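A five-concentration, 48-hour dose response in 96-well plates underlies each endpoint, interpolated linearly between surrounding concentrations. GI50 = concentration required for 50% inhibition of growth.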 Activity calls are given as the source filed them. No stated cut-off is given here; in the data, active = GI50 up to about 1.1 µM and inactive = higher.

Turning to `CCc1cccc(C)c1NC(=O)C1=C(C)NC(C)=C(C(=O)Nc2c(C)cccc2CC)C1c1ccc([N+](=O)[O-])cc1`, the GI50 with NCI-H226 was 39.8 µM (inactive); in the assay with SF-539, > 100 µM (inactive); with KM-20L2, 39.9 µM (inactive); in the assay with NCI-H23 it was 27.3 µM (inactive); in the assay with HOP-62, 40.1 µM (inactive); with SK-MEL-28, 51.4 µM (inactive). Moreover, the GI50 is 34.8 µM (inactive) in the assay with M14; 37.9 µM (inactive) in the assay with LXFL 529; 53.5 µM (inactive) in the assay on SNB-19; 40.8 µM (inactive) in the assay with A498; 28.6 µM (inactive) in the assay with NCI-H460; 44.5 µM (inactive) with HT-29. Moreover, the GI50 was 49.5 µM (inactive) in the assay with OVCAR-8 and 44.9 µM (inactive) in the assay with OVCAR-3.

As for `O=c1[nH]c(=O)n([C@@H]2C[C@H](CO)[C@H](O)C2)cc1/C=C/Br`, the GI50 in the assay on NCI-H226, in the assay with SF-539, in the assay with KM-20L2, in the assay on NCI-H23, in the assay with HOP-62 and with SK-MEL-28 was > 100 µM (inactive) each time. In addition, the GI50 in the assay on HCT-116 was > 100 µM (inactive); in the assay with M14 it was > 100 µM (inactive); in the assay on LXFL 529 it was > 100 µM (inactive); with SNB-19 it was > 100 µM (inactive); in the assay on HCT-15, more than 100 µM; in the assay on A498 it was > 100 µM (inactive). Moreover, the GI50 in the assay on NCI-H460, in the assay on HT-29, in the assay with OVCAR-8 and in the assay with OVCAR-3 was > 100 µM (inactive) throughout.

`Cc1ccc(NC(=O)CC/C(CC(=O)C(C)(C)C)=N\Nc2ccc([N+](=O)[O-])cc2[N+](=O)[O-])cc1C`: the GI50 was > 100 µM (inactive) with NCI-H226; 59.4 µM (inactive) in the assay on SF-539; > 100 µM (inactive) in the assay with KM-20L2; 46.2 µM (inactive) in the assay on NCI-H23; 0.0522 µM (active) with HOP-62; > 100 µM (inactive) in the assay with SK-MEL-28. Moreover, the GI50 in the assay with HCT-116 was 50.5 µM (inactive); in the assay with M14, 0.0129 µM (active); with LXFL 529, 40.9 µM (inactive); in the assay on SNB-19, > 100 µM (inactive); with HCT-15, 41.5 µM; in the assay with NCI-H460, 56.8 µM (inactive). For the same molecule, the GI50 is 57 µM (inactive) in the assay on HT-29, 59.6 µM (inactive) with OVCAR-8 and 0.0195 µM (active) with OVCAR-3.

On to `O=c1cc(-c2ccccc2)nc(/C=C(\O)c2ccncc2)n1-c1ccccc1`, for which the GI50 in the assay with NCI-H226, in the assay on SF-539, with KM-20L2, in the assay with NCI-H23, in the assay on HOP-62 and in the assay on SK-MEL-28 was > 100 µM (inactive) in each case. Further, the GI50 in the assay on HCT-116 is > 100 µM (inactive); in the assay on M14, > 100 µM (inactive); in the assay on LXFL 529, > 100 µM (inactive); in the assay with SNB-19, > 100 µM (inactive); in the assay with HCT-15 it was more than 100 µM; with A498 it was > 100 µM (inactive). Also, the GI50 in the assay with NCI-H460, in the assay on HT-29, with OVCAR-8 and with OVCAR-3 was > 100 µM (inactive) in each case.

For `COc1ccc(C(C2=C(O)CC(C)OC2=O)C2=C(O)CC(C)OC2=O)cc1` (configuration not stated), the GI50 in the assay with NCI-H226, in the assay with SF-539, in the assay with KM-20L2, in the assay on NCI-H23, in the assay on HOP-62 and in the assay with SK-MEL-28 was > 100 µM (inactive) in each case. Further, the GI50 in the assay with HCT-116 is > 100 µM (inactive); with M14 it was > 100 µM (inactive); with LXFL 529, > 100 µM (inactive); in the assay with SNB-19, > 100 µM (inactive); in the assay on HCT-15 it was more than 100 µM; in the assay on NCI-H460, > 100 µM (inactive). Also, the GI50 in the assay with HT-29, in the assay with OVCAR-8 and with OVCAR-3 was > 100 µM (inactive) in each case.

Consider `COc1ccc2[nH]c3c4c(c5cc(C(C)(C)C)ccc5c3c2c1)C(=O)N(c1ccccc1)C4=O`, for which the GI50 in the assay with NCI-H226 was > 100 µM (inactive); in the assay with SF-539, 21.7 µM (inactive); with KM-20L2, > 100 µM (inactive); with NCI-H23 it was > 100 µM (inactive); with HOP-62, > 100 µM (inactive); in the assay with SK-MEL-28, > 100 µM (inactive). The GI50 in the assay with HCT-116 was > 100 µM (inactive); in the assay on M14, 54.3 µM (inactive); in the assay with LXFL 529, > 100 µM (inactive); in the assay on SNB-19, > 100 µM (inactive); in the assay with A498 it was 24.9 µM (inactive); with NCI-H460, > 100 µM (inactive). The GI50 with HT-29 was > 100 µM (inactive); in the assay with OVCAR-8, 44.7 µM (inactive); with OVCAR-3, > 100 µM (inactive).

Take `Cc1ccccc1NC(=O)/C=N/O`: the GI50 in the assay on NCI-H226 is > 100 µM (inactive); in the assay with KM-20L2, 16.9 µM (inactive); in the assay with NCI-H23, > 100 µM (inactive); in the assay with HOP-62, > 100 µM (inactive); with SK-MEL-28, > 100 µM (inactive); with HCT-116 it was > 100 µM (inactive). The GI50 in the assay with M14 was > 100 µM (inactive); in the assay on LXFL 529, > 100 µM (inactive); in the assay with SNB-19, > 100 µM (inactive); in the assay on HCT-15, more than 100 µM; in the assay on A498 it was > 100 µM (inactive); in the assay with HT-29, > 100 µM (inactive). The GI50 with OVCAR-8 and in the assay on OVCAR-3 was > 100 µM (inactive) throughout.

With `COC(c1ccccc1)C(c1ccccc1)N1CCOCC1` (configuration not stated), the GI50 in the assay with NCI-H226, in the assay with SF-539, in the assay with KM-20L2, in the assay on NCI-H23, in the assay on HOP-62 and in the assay with SK-MEL-28 was > 100 µM (inactive) throughout. The GI50 in the assay on HCT-116, in the assay with M14, in the assay with LXFL 529, with SNB-19, with A498 and with NCI-H460 was > 100 µM (inactive) throughout. In addition, the GI50 in the assay on HT-29, in the assay with OVCAR-8 and with OVCAR-3 was > 100 µM (inactive) in each case.

Consider `CCNC(=O)COc1ccc(Cl)cc1Cl`, for which the GI50 with NCI-H226, in the assay on SF-539, in the assay on KM-20L2, with NCI-H23, with HOP-62 and in the assay with SK-MEL-28 was > 100 µM (inactive) throughout. Also, the GI50 in the assay on HCT-116 was > 100 µM (inactive); in the assay on M14, > 100 µM (inactive); with LXFL 529, > 100 µM (inactive); in the assay on SNB-19 it was > 100 µM (inactive); with HCT-15 it was more than 100 µM; with A498 it was > 100 µM (inactive). The GI50 in the assay with NCI-H460, with HT-29, in the assay with OVCAR-8 and with OVCAR-3 was > 100 µM (inactive) each time.

Regarding `Cc1ccc(NC(=O)NC23CC4CC(CC(F)(C4)C2)C3)cc1`, the GI50 in the assay with SF-539 is > 100 µM (inactive); in the assay with KM-20L2, 45.9 µM (inactive); in the assay on NCI-H23, 99.3 µM (inactive); in the assay on HOP-62 it was > 100 µM (inactive); with SK-MEL-28, > 100 µM (inactive); in the assay on HCT-116 it was 41.3 µM (inactive). In addition, the GI50 with M14 is 95.3 µM (inactive); in the assay on LXFL 529, 88.7 µM (inactive); with SNB-19, > 100 µM (inactive); in the assay on A498, > 100 µM (inactive); in the assay on NCI-H460 it was > 100 µM (inactive); with HT-29 it was 53.6 µM (inactive). The GI50 with OVCAR-8 and in the assay on OVCAR-3 was > 100 µM (inactive) each time.

As to `CS/C(=N\c1ccccc1Cl)NC(=O)c1ccc(Br)cc1`, the GI50 was 41 µM (inactive) with NCI-H226; 37.2 µM (inactive) in the assay on SF-539; > 100 µM (inactive) with KM-20L2; > 100 µM (inactive) in the assay on NCI-H23; 21.3 µM (inactive) in the assay on HOP-62; 25.9 µM (inactive) in the assay with SK-MEL-28. In addition, the GI50 in the assay with HCT-116 is > 100 µM (inactive); in the assay with M14, 24.6 µM (inactive); in the assay on LXFL 529, 79.4 µM (inactive); with SNB-19, 33.1 µM (inactive); in the assay on HCT-15 it was more than 100 µM; with NCI-H460, > 100 µM (inactive). For the same molecule, the GI50 in the assay with HT-29, in the assay with OVCAR-8 and with OVCAR-3 was > 100 µM (inactive) each time.

In the case of `Cc1ccccc1NC(=O)/C(=N\NC(N)=S)C(C#N)c1ccccc1` (configuration not stated), the GI50 with NCI-H226, in the assay with SF-539, in the assay with KM-20L2, with NCI-H23, in the assay with HOP-62 and in the assay on SK-MEL-28 was > 100 µM (inactive) each time. In addition, the GI50 in the assay on HCT-116 was > 100 µM (inactive); in the assay on M14 it was > 100 µM (inactive); in the assay with LXFL 529 it was > 100 µM (inactive); in the assay on SNB-19, > 100 µM (inactive); with HCT-15, more than 100 µM; in the assay with A498, > 100 µM (inactive). The GI50 in the assay on NCI-H460, with HT-29, with OVCAR-8 and in the assay with OVCAR-3 was > 100 µM (inactive) throughout.

Take `CC12CCC(=O)C[C@H]1CCC(OC=O)C2Br` (some centres not stated): the GI50 in the assay with NCI-H226, in the assay with SF-539, with KM-20L2, in the assay on NCI-H23, with HOP-62 and in the assay with SK-MEL-28 was > 100 µM (inactive) throughout. Further, the GI50 with HCT-116 is > 100 µM (inactive); in the assay with M14 it was > 100 µM (inactive); in the assay with LXFL 529, > 100 µM (inactive); in the assay with SNB-19 it was > 100 µM (inactive); in the assay with HCT-15 it was more than 100 µM; with A498 it was > 100 µM (inactive). Besides, the GI50 in the assay with NCI-H460, with HT-29, in the assay on OVCAR-8 and with OVCAR-3 was > 100 µM (inactive) throughout.

The values are drawn from ChEMBL document CHEMBL1201862, “PubChem BioAssay data set” (2004).
